The source of these data is patent US8912227B1, “Bicyclic pyrrole derivatives useful as agonists of GPR120” (Janssen Pharmaceutica NV, priority 2014, dated 2014).

Each structure is given as a SMILES string.

The target in this assay is T1, long form of human GPR120 (Homo sapiens, UniProt Q5NUL3).
T1 construct: host or cells: PathHunter CHO-K1 GPR120 β-Arrestin Cell Line
Description: Human GPR120 DiscoveRx PathHunter β-Arrestin assay, Procedure β-arrestin A. Type of assay: cell-based. As to conditions: PathHunter CHO-K1 GPR120 β-Arrestin cell line, 3000 cells per well. In short, it runs like this: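 PathHunter CHO-K1 β-arrestin cells (NM_181745 construct) were plated at 3000/well overnight, then held 60 min in HBSS/20 mM HEPES/0.1% BSA, pH 7.4. Compounds (dilution series 25–0.012 µM before addition) were added for 90 min at 37 °C, followed by 60 min RT luminescence detection. EC50 was fitted from % of positive control with Hill slope fixed at 1.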

T1 sequence (Q5NUL3 1-377 isoform Q5NUL3-1): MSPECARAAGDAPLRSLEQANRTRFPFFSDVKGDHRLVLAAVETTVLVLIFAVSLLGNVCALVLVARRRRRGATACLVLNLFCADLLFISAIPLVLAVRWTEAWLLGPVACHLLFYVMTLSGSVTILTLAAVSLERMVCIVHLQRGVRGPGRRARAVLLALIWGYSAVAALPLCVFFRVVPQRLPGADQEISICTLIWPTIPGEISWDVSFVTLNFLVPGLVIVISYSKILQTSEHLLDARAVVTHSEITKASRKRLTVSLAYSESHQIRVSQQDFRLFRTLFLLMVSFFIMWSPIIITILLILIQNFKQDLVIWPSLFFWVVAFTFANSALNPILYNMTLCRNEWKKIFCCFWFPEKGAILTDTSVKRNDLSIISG
T1 sequence (P32121 whole entry partner): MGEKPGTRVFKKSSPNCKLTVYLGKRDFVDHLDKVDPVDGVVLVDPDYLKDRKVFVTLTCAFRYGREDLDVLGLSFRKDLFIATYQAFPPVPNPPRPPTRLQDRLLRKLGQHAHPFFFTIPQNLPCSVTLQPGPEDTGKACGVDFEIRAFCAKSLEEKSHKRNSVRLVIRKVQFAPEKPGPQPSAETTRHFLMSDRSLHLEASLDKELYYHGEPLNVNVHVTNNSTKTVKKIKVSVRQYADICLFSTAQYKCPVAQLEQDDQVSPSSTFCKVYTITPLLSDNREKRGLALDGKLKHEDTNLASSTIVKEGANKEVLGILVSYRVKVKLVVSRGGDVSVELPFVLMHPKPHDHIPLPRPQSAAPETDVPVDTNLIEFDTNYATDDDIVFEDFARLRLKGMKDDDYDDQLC

With `Cc1c(CCC(=O)O)ccc(OCc2cccn2-c2ccc(Cl)cc2)c1C` [Compound 1, 3-(4-{[1-(4-Chlorophenyl)-1H-pyrrol-2-yl]methoxy}-2,3-dimethylphenyl)propanoic acid], it took 1040 nM to reach a half-maximal effect (EC50).

Take `CCc1ccc(-n2ccc(C(F)(F)F)c2COc2ccc(CCC(=O)O)c(F)c2F)cc1` [Compound 34, 3-(4-[[1-(4-ethylphenyl)-3-(trifluoromethyl)-1H-pyrrol-2-yl]methoxy]-2,3-difluorophenyl)propanoic acid]: the EC50 was found to be 171 nM.

Turning to `OCCCc1ccc(OCc2c(C(F)(F)F)ccn2-c2ccc(Cl)cc2)c(F)c1F` [Compound 29, 3-(4-{[1-(4-Chlorophenyl)-3-(trifluoromethyl)-1H-pyrrol-2-yl]methoxy}-2,3-difluorophenyl)propan-1-ol], the EC50 turned out to be 53 nM.

Turning to `Cc1ccc(-n2ccc(C(F)(F)F)c2COc2c(F)cc(CCC(=O)O)cc2F)cc1` [Compound 39, 3-(3,5-difluoro-4-[[1-(4-methylphenyl)-3-(trifluoromethyl)-1H-pyrrol-2-yl]methoxy]phenyl)propanoic acid], it took 264 nM to reach a half-maximal effect (EC50).
